Source: US20090203892A1, “Retrotransposon Inhibition in Therapy” (ISTITUTO SUPERIORE DI SANITA, priority 2004, published 2009)

Legend:
A-375 melanoma = experiment: Cell growth under prolonged exposure to RT inhibitors; type: cell-based, Human; details: for reversibility of growth inhibition: after removal of RT inhibitors, within one or two 96 h-cycles; for cell growth: nevirapine 350 μM, efavirenz 15 μM, five 96 h-cycles
Description: (§1) Human A-375 melanoma (ATCC-CRL-1619), TVM-A12 primary melanoma-derived (20), HT29 adenocarcinoma (ATCC HTB-38), H69 small cell lung carcinoma (SCLC) (ATCC HTB119), and PC3 prostate carcinoma (ATCC CRL-1435) cell lines were seeded in six-well plates at a density of 10^4 to 5×10^4 cells/well and cultured in DMEM or RPMI1640 medium with 10% fetal bovine serum. Nevirapine and Efavirenz were purified from commercially available Viramune (Boehringer-Ingelheim) and Sustiva (Bristol-Myers Squibb) as described (18). The drugs were made 350 and 15 μM in dimethyl sulfoxide (DMSO, Sigma-Aldrich), respectively, and added to cells 5 h after seeding; the same DMSO volume (0.2% final concentration) was added to controls. Fresh RT inhibitor-containing medium was changed every 48 h. Cells were harvested every 96 h, counted in a Burker chamber (two countings/sample) and replated at the same density.

PC3 prostate carcinoma = experiment: as above; type: cell-based, Human; details: for reversibility of growth inhibition: after removal of RT inhibitors, within one or two 96 h-cycles; for cell growth: nevirapine 350 μM, efavirenz 15 μM, five 96 h-cycles
Description: as §1

[1] = system: TVM-A12 primary melanoma-derived cell line; experiment: as above; type: cell-based, Human; details: for reversibility of growth inhibition: after removal of RT inhibitors, within one or two 96 h-cycles; for cell growth: nevirapine 350 μM, efavirenz 15 μM, five 96 h-cycles
Description: as §1

A-375 melanoma cells = experiment: Morphological differentiation (phase contrast, SEM, confocal microscopy); type: cell-based, Human; details: compared to DMSO-treated controls
Description: (§2) A-375 and TVM-A12 cells were fixed with 4% para-formaldehyde for 10 min and permeabilized in 0.2% Triton-X 100 in PBS for 5 min. […] Confocal sections were taken at 0.5-1 μm intervals. A-375 and TVM-A12 cells were fixed in 2.5% glutaraldehyde in 0.1 M Millonig's phosphate buffer. After washing, cells were post-fixed with 1% OsO4 (1 h, 4° C.) in MPB and dehydrated using increasing acetone concentrations. Samples were critical-point dried using liquid CO2 and sputter-coated with gold before examination on a Stereoscan 240 scanning electron microscope (Cambridge Instr., Cambridge, UK).

[2] = system: E-cadherin, c-myc, bcl-2 and cyclin D1 genes in A-375 melanoma cells; experiment: Gene expression by semiquantitative RT-PCR in RT-inhibited cultures; type: cell-based, Human; details: four cycles, compared to controls
Description: Each oligo pair was used in sequential amplification series with increasing numbers (25 to 40) of cycles. PCR products were electrophoresed, transferred to membranes and hybridized for 16 h at 42 C.° with [^32P]γ-ATP end-labelled internal oligonucleotides. The intensity of the amplification signal was measured by densitometry in at least three independent experiments for each gene. [table] […] This was investigated in semiquantitative RT-PCR analysis of cultures treated with DMSO only, or nevirapine or efavirenz for four cycles. In A-375 melanoma cells, we focussed on a set of four genes: the E-cadherin gene, involved in cell-cell adhesion and expressed in differentiated but not in tumor cells (24); and the c-myc, bcl-2 (25) and cyclin D1 (26) genes, which are directly implicated in melanoma cell proliferation and tumor growth.

A-375 melanoma xenograft = experiment: Human tumor xenograft growth in athymic nude mice; type: in vivo; details: 20 mg/kg s.c. daily five days a week, start one day or one week after inoculation; vs untreated
Description: (§3) Controls were injected with 50% DMSO.

[3] = system: H69 small cell lung carcinoma xenograft; experiment: Human tumor xenograft growth in athymic nude mice; type: in vivo; details: 20 mg/kg s.c. daily five days a week, start one day or one week after inoculation; vs untreated
Description: as §3

HT29 colon xenograft = experiment: Human tumor xenograft growth in athymic nude mice; type: in vivo
Description: as §3

PC3 xenograft = experiment: Human tumor xenograft growth in athymic nude mice; type: in vivo
Description: as §3

[4] = Description: Five-week old athymic nude mice (Harlan, Italy), kept in accordance with the European Union guidelines, were inoculated sub-cutaneously with A-375 melanoma (4×10^6), H-69 (10^7), PC3 (2×10^6) and HT-29 (10^6) cells in 100 μl PBS. […] Controls were injected with 50% DMSO. Treatment started one day or one week after tumor implant, and, in some experiments, was discontinued after 14 days. Tumor growth was monitored every other day by caliper measurements; volumes were calculated using the formula: […]
Cells were inoculated subcutaneously in the limb of athymic nude mice.

[5] = Preliminary in vivo assays of RT inhibitors
[6] = system: PC3 prostate cancer cells; experiment: Tumorigenicity of efavirenz-pretreated PC3 cells inoculated in nude mice; type: in vivo
Description: as §3
We also investigated whether pretreatment of transformed cells with efavirenz would modify the tumorigenic potential of derived xenografts. PC3 prostate cancer cells were cultured with 20 μM efavirenz for two 96 h-cycles, a time that was sufficient for induction of the PSA and AR genes (FIG. 3B), and subsequently inoculated in nude mice.
Untreated cells were inoculated in parallel batches of animals. Efavirenz-pretreated, or untreated, PC3 cell xenografts were then either continuously treated with efavirenz in vivo or were left untreated. […] As summarized in FIG. 6 B, efavirenz-pretreated PC3 cells developed slowly-growing xenografts in 65% of the inoculated animals, compared to 100% using untreated cells. […] Thus, efavirenz attenuates the tumorigenic potential of transformed cells.

endogenous RT = details: non-infected cells in vitro (ref. 19); cited from earlier work
primary TVM-A12 cells = experiment: Morphological differentiation (phase contrast, SEM, confocal microscopy); type: cell-based, Human; details: compared to untreated cells
Description: as §2

[7] = 20 mg/kg s.c. daily five days a week, start one day or one week after inoculation, vs untreated
[8] = treated from day one, treatment discontinuation after day 15

Row | SMILES | reversibility of growth inhibition (A-375 melanoma) | cell growth (A-375 melanoma) | reversibility of growth inhibition (PC3 prostate carcinoma) | cell growth (PC3 prostate carcinoma) | reversibility of growth inhibition [1] | cell growth [1] | morphological differentiation (A-375 melanoma cells) | inhibition of the enzymatic activity of the endogenous RT (endogenous RT) | further results
1 | O=C1Nc2ccc(Cl)cc2[C@@](C#CC2CC2)(C(F)(F)F)O1 [efavirenz, Efavirenz] | reversible | effectively reduce cell growth | reversible | effectively reduce cell growth | reversible | effectively reduce cell growth | became evident within four-five days | inhibit the enzymatic activity of the endogenous RT | expression of the cyclin D1 gene [2]: failed to down-regulate cyclin D1 expression; tumor growth (A-375 melanoma xenograft): markedly reduced; tumor growth [3]: markedly reduced; tumor growth (HT29 colon xenograft; [7]): markedly reduced; reversibility of inhibition of tumor growth (HT29 colon xenograft; [8]): reversible in vivo; tumor growth (PC3 xenograft; [7]): markedly reduced; reversibility of inhibition of tumor growth (PC3 xenograft; [8]): reversible in vivo; animal death or signs of toxicity ([4]; 4 to 40 mg/kg, all animal groups): no animal death or explicit signs of toxicity in any of the groups; animals with significant decrease of body weight ([4]; group treated with 40 mg/kg): more than 60 % of animals; in vivo effectiveness relative to nevirapine [5]: higher in vivo effectiveness than nevirapine; inoculated animals developing xenografts ([6]; cells pretreated with 20 μM efavirenz for two 96 h-cycles, no treatment in vivo, 100% using untreated cells, 30 days): 65 % of the inoculated animals; xenograft growth ([6]; efavirenz-pretreated cells, no treatment in vivo): xenografts grew more slowly; xenograft growth ([6]; pretreated cells and further treated with efavirenz in vivo): the growth curve was flat; animals developing a tumor ([6]; pretreated cells and further treated with efavirenz in vivo, 30 days): 40 % of the animals
2 | Cc1ccnc2c1NC(=O)c1cccnc1N2C1CC1 [nevirapine, Nevirapine] | reversible | effectively reduce cell growth | reversible | effectively reduce cell growth | reversible | effectively reduce cell growth | became evident within four-five days | inhibit the enzymatic activity of the endogenous RT | morphological differentiation (primary TVM-A12 cells): formed instead typical branched dendrites
